Source: patent US20240424048A1, “CHINESE MEDICINE FORMULA FOR TREATING TUMORS AND/OR PULMONARY NODULES AND PREPARATION METHOD THEREOF” (priority 2023, published 2024)
Like-named read-outs stand apart in the source and are kept apart here. Marks after values point to notes of the source that are not given here.

Assays:
Lewis lung cancer = format: in vivo, mouse; conditions: 15 mg/kg
Description: C57BL/6 mice, 6-8 weeks old, weighing 19-21 g, male, provided by Liaoning Changsheng Biotechnology Co., Ltd., certificate number: SYSK (Ji) 2018-0001. Two batches of experiments all used male C57BL/6 mice, which were adaptively raised in a laboratory for 3-5 days before the experiment.
Mouse Lewis lung cancer cells were provided by Jilin Cancer Research Institute and passaged and preserved in the laboratory. Lewis lung cancer cells were resuscitated, cells were expanded to 2-3×10^8 cells/mL, cells were collected, and cell density was adjusted to 2×10^7 cells/mL.
(§1) a first batch of experiments: C57BL/6 mice were randomly divided into 6 groups according to body weight. • Saline control group administered with physiological saline 20 ml/kg • Solvent control group administered with 35-degree white wine 20 ml/kg • Cyclophosphamide administered with 0.075% 15 mg/20 group cyclophosphamide ml/kg • Low dose group of anti-administered with 20% anti-lung cancer 4 ml/20 lung cancer vinum ml/kg • Mid dose group of anti-administered with 40% anti-lung cancer 8 ml/20 lung cancer vinum ml/kg • High dose group of anti-Administered with 80% anti-lung 16 ml/20 m lung cancer vinum cancer vinum l/kg • a second batch of experiments: randomly divided into 6 groups based on body weight: • Saline control group administered with physiological saline 20 ml/kg • Solvent control group administered with 35-degree white wine 20 ml/kg • Cyclophosphamide administered with 0.075% 15 mg/20 group cyclophosphamide ml/kg • Low dose group of anti-administered with 10% anti-lung cancer 2 ml/20 lung cancer vinum ml/kg • Mid dose group of anti-administered with 20% anti-lung cancer 4 ml/20 lung cancer vinum ml/kg • High dose group of anti-administered with 40% anti-lung cancer 8 ml/20 lung cancer vinum ml/kg
(§2) C57BL/6 mice were adaptively fed for 3-5 days, and an in vivo transplant tumor model was prepared using anti-tumor drug experimental methods. Each mouse was subcutaneously injected with 0.2 ml of cell suspension with a concentration of 2×10^7 cells/mL. On the second day, they were randomly divided into 6 groups based on body weight, with 20 mice in each group. Each group started administration the next day after tumor inoculation, and the drugs in each group were freshly prepared and administered at a dose of […], twice a day for 14, 16, or 21 consecutive days.
(§3) The first batch of experiments: measure a tumor volume and plot a tumor growth curve once on the 8th, 10th, 12th, and 14th day of administration; after 14 days of administration, 10 mice in each group were weighed and euthanized. Tumors, spleens, lungs, and thymus were removed, weighed, tumor inhibition rate and organ coefficient were calculated; after 21 days of administration, 6 mice in each group were perfused with physiological saline and their lungs were removed, fixed with Bouin solution and the number of metastatic lung nodules was examined under a microscope.
(§4) The second batch of experiments: measure the tumor volume and plot the tumor growth curve once on the 8th, 10th, 12th, 14th, and 16th day of administration; after 16 days of administration, 12 mice in each group were weighed and euthanized. Tumors, spleens, lungs, and thymus were removed, weighed, and the tumor inhibition rate and organ coefficient were calculated; after 21 days of administration, 6 mice in each group were perfused with physiological saline and their lungs were removed, fixed with Bouis solution and the number of metastatic lung nodules was examined under the microscope.

[1] = tested on: Lewis lung cancer lung metastasis; format: in vivo, mouse; conditions: 15 mg/kg; for Number of pulmonary nodules: after 21 days of administration
Protocol: as §1
C57BL/6 mice were adaptively fed for 3-5 days, and an in vivo transplant tumor model was prepared using anti-tumor drug experimental methods. Each mouse was subcutaneously injected with 0.2 ml of cell suspension with a concentration of 2×10^7 cells/mL. […]
as §3, with “microscope. […]” for “microscope.”

[2] = 15 mg/kg
Protocol: as §1, §2, §3, §4

[3] = first batch, after 14 days of administration
[4] = second batch, after 16 days of administration

In the case of `O=P1(N(CCCl)CCCl)NCCCO1` (centres unmarked) [Cyclophosphamide], the Volume of tumor (Lewis lung cancer; first batch, 8 days) is reported as 61.08##** mm^3, the Volume of tumor (Lewis lung cancer; first batch, 10 days) is reported as 244.09##** mm^3 and the Volume of tumor (Lewis lung cancer; first batch, 12 days) is reported as 817.83##** mm^3. For the same molecule, the Volume of tumor (Lewis lung cancer; first batch, 14 days) was 953.67##** mm^3, the Tumor inhibition rate (Lewis lung cancer; [3]) was 63.52% and the Weight of tumor (Lewis lung cancer; [3]) was 0.59 ± 0.26 g. For the same molecule, the Volume of tumor (Lewis lung cancer; second batch, 8 days) was 111.30##** mm^3, the Volume of tumor (Lewis lung cancer; second batch, 10 days) was 165.52##** mm^3 and the Volume of tumor (Lewis lung cancer; second batch, 12 days) was 278.25##** mm^3. For the same molecule, the Volume of tumor (Lewis lung cancer; second batch, 14 days) was 371.57##** mm^3, the Volume of tumor (Lewis lung cancer; second batch, 16 days) was 461.54##** mm^3 and the Tumor inhibition rate (Lewis lung cancer; [4]) was 67.43%. The Weight of tumor (Lewis lung cancer; [4]) was 0.56 ± 0.22 g, the Tumor inhibition rate (Lewis lung cancer; summary of both batches, by gavage) was 65.48% and the “Effect on lung metastasis in Lewis lung cancer mice” value ([1]; continuous administration for 21 days) was “can inhibit lung metastasis”. The “Number of pulmonary nodules” value ([1]; first batch) was 6.17 ± 1.94, the “Number of pulmonary nodules” value ([1]; second batch) was 6.67 ± 1.21 and the “Toxicity (body weight, thymic coefficient, spleen coefficient of mice)” value [2] was “significant toxic effects”. The Weight before administration ([2]; first batch, Table 3) was 20.30 ± 1.33 g, the Lung coefficient [2, 3] was 7.26 ± 0.85 and the Spleen coefficient [2, 3] was 3.40 ± 1.02. It also gave a Thymic coefficient [2, 3] of 1.11 ± 0.35, a Weight after administration [2, 3] of 20.30 ± 1.33 g and a Weight after administration ([2]; first batch, after 21 days of administration) of 21.81 ± 1.37 g. For the same molecule, the Weight after administration [2, 4] was 21.58 ± 0.79 g, the Lung coefficient [2, 4] was 6.66 ± 0.72 and the Spleen coefficient [2, 4] was 3.62 ± 0.86. It also gave a Thymic coefficient [2, 4] of 0.47 ± 0.16 and a Weight after administration ([2]; second batch, after 21 days of administration) of 22.02 ± 1.71 g.
